# Legend:
# [1] = target: Adrenergic receptor alpha-2 (Rattus norvegicus) (UniProt P22086+P19328+P22909); assay: Displacement of [3H]RX 821002 from alpha2 receptor in rat cerebral cortex at 10 uM after 60 mins by scintillation counting; assay type: tissue-based
# [2] = target: Beta-1 adrenergic receptor (Homo sapiens) (UniProt P08588); assay: Displacement of [3H]RX 821002 from human recombinant beta-1 adrenergic receptor expressed in HEK293 cells at 10 uM after 60 mins by scintillation counting; assay type: cell-based
# Chain of Beta-1 adrenergic receptor (Homo sapiens) (P08588 whole entry, looked up): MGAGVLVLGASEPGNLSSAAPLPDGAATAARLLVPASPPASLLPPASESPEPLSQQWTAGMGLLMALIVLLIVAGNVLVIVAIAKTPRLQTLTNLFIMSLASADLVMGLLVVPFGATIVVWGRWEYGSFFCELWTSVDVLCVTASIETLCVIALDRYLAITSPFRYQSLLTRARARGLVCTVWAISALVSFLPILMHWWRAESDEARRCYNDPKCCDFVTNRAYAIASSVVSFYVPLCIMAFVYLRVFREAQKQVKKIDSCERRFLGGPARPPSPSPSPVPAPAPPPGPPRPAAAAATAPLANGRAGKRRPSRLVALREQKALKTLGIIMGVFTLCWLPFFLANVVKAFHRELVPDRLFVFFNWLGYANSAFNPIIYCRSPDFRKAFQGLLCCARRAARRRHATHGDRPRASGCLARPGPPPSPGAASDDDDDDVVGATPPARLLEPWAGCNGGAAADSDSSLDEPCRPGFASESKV
# [3] = target: Cannabinoid receptor 1 (Homo sapiens) (UniProt P21554); assay: Displacement of [3H]CP-55940 from human recombinant CB1 receptor expressed in CHO cells at 10 uM after 120 mins by scintillation counting; assay type: cell-based
# Chain of Cannabinoid receptor 1 (Homo sapiens) (P21554 whole entry): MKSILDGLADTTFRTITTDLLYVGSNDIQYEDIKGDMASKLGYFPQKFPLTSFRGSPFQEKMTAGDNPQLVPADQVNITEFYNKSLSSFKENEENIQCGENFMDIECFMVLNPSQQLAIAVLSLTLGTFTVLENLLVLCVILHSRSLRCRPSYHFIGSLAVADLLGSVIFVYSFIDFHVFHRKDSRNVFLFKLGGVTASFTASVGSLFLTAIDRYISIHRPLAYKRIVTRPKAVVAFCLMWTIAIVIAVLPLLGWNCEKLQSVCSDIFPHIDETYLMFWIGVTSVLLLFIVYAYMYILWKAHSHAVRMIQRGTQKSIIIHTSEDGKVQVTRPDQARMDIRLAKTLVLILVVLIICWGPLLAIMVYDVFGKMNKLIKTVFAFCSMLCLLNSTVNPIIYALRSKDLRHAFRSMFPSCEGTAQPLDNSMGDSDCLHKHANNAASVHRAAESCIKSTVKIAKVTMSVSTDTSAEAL
# [4] = target: D(1A) dopamine receptor (Homo sapiens) (UniProt P21728); assay: Displacement of [3H]SCH 23390 from human recombinant dopamine D1 receptor expressed in CHO cells at 10 uM after 60 mins by scintillation counting; assay type: cell-based
# Rattus norvegicus [5] = species on record: Rattus norvegicus; assay: Displacement of [3H]TCP from PCP receptor in rat cerebral cortex at 10 uM after 120 mins by scintillation counting; assay type: tissue-based
# [6] = target: Muscarinic acetylcholine receptor M1 (Homo sapiens) (UniProt P11229); assay: Displacement of [3H]pirenzepine from human recombinant muscarinic M1 receptor expressed in CHO cells at 10 uM after 60 mins by scintillation counting; assay type: cell-based
# Chain of Muscarinic acetylcholine receptor M1 (Homo sapiens) (P11229 whole entry): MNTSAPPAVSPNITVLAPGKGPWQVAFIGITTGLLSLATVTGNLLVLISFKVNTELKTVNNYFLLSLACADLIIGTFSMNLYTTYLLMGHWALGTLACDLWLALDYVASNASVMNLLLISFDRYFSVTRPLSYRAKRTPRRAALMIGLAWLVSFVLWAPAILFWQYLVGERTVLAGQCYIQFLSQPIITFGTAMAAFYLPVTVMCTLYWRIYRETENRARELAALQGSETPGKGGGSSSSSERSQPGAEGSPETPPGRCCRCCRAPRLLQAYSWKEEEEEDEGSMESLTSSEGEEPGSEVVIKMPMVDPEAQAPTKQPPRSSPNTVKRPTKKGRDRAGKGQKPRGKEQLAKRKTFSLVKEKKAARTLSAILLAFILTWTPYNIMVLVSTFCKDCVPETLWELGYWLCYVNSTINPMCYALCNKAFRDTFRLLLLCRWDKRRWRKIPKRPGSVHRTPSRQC
# [7] = target: Muscarinic acetylcholine receptor M2 (Homo sapiens) (UniProt P08172); assay: Displacement of [3H]AF-DX 384 from human recombinant muscarinic M2 receptor expressed in CHO cells at 10 uM after 60 mins by scintillation counting; assay type: cell-based
# [8] = target: Prostacyclin receptor (Homo sapiens) (UniProt P43119); assay: Displacement of [3H]iloprost from human recombinant IP receptor expressed in HEK293 cells at 10 uM after 60 mins by scintillation counting; assay type: cell-based
# Chain of Prostacyclin receptor (Homo sapiens) (P43119 whole entry): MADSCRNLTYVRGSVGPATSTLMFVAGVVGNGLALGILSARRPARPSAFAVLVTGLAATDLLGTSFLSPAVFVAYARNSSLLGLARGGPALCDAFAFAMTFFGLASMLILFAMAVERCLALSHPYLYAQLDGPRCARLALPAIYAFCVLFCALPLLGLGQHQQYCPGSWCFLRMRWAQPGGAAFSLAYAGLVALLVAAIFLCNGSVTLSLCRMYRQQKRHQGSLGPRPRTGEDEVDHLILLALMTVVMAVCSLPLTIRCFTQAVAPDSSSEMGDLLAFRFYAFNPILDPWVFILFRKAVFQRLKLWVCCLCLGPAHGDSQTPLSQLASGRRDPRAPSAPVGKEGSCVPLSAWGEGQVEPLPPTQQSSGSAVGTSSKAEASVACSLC
# Rattus norvegicus [9] = species on record: Rattus norvegicus; assay: Displacement of [35S]dATPaS from P2Y receptor in rat cerebral cortex at 10 uM after 60 mins by scintillation counting; assay type: tissue-based
# [10] = target: 5-hydroxytryptamine receptor 1B (Rattus norvegicus) (UniProt P28564); assay: Displacement of [125I]CYP from 5HT1B receptor in rat cerebral cortex at 10 uM after 120 mins by scintillation counting in presence of 30 uM isoproterenol; assay type: tissue-based
# Chain of 5-hydroxytryptamine receptor 1B (Rattus norvegicus) (P28564 whole entry): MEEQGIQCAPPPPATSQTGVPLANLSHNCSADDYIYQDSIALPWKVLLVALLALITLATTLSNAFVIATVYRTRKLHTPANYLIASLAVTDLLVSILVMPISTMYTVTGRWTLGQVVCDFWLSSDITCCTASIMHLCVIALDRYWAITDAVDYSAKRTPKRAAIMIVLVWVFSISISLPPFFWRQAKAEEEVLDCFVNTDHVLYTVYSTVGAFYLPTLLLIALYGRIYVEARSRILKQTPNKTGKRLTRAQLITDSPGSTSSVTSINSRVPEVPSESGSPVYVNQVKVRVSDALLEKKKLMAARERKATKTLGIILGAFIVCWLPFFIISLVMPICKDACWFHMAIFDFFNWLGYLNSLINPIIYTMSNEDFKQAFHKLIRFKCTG
# [11] = target: Calcitonin gene-related peptide type 1 receptor (Homo sapiens) (UniProt Q16602); assay: Displacement of [125I]hCGRPa from human recombinant CGRP receptor expressed in CHO cells at 10 uM after 90 mins by scintillation counting; assay type: cell-based
# Chain of Calcitonin gene-related peptide type 1 receptor (Homo sapiens) (Q16602 whole entry): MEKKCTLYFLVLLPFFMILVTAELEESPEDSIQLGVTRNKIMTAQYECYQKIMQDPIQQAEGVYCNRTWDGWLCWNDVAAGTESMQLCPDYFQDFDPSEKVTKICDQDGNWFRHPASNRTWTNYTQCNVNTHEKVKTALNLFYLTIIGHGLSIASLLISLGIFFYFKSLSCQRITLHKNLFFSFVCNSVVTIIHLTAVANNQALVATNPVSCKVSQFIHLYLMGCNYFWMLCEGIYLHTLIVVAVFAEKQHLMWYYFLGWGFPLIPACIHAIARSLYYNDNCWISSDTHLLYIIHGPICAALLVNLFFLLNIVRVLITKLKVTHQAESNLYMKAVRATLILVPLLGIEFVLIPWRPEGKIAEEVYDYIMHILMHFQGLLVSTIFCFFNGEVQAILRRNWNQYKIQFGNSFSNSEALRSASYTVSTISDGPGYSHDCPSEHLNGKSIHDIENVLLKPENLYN
# [12] = target: C-C chemokine receptor type 1 (Homo sapiens) (UniProt P32246); assay: Displacement of [125I]MIP-1a from human recombinant CCR1 receptor expressed in HEK293 cells at 10 uM after 120 mins by scintillation counting; assay type: cell-based
# [13] = target: Somatostatin receptor (Mus musculus) (UniProt P30935+O08858+P30875+P30873+P49660); assay: Displacement of [125I]Tyr11-somatostatin-14 from somatostatin in mouse AtT-20 cells at 10 uM after 60 mins by scintillation counting; assay type: cell-based; settings: AtT20
# [14] = target: Vasoactive intestinal polypeptide receptor 1 (Homo sapiens) (UniProt P32241); assay: Displacement of [125I]VIP from human recombinant VPAC1 receptor expressed in CHO cells at 10 uM after 60 mins by scintillation counting; assay type: cell-based
# [15] = target: Sodium-dependent noradrenaline transporter (Homo sapiens) (UniProt P23975); assay: Displacement of [3H]nisoxetine from human recombinant NET expressed in CHO cells at 10 uM after 120 mins by scintillation counting; assay type: cell-based
# P2X purinoceptor 3 = target: T1, P2X purinoceptor 3 (Rattus norvegicus, UniProt P49654); assay: Antagonist activity at rat P2X3 receptor expressed in CHO cells; assay type: functional, cell-based
# T1 sequence (P49654 whole entry): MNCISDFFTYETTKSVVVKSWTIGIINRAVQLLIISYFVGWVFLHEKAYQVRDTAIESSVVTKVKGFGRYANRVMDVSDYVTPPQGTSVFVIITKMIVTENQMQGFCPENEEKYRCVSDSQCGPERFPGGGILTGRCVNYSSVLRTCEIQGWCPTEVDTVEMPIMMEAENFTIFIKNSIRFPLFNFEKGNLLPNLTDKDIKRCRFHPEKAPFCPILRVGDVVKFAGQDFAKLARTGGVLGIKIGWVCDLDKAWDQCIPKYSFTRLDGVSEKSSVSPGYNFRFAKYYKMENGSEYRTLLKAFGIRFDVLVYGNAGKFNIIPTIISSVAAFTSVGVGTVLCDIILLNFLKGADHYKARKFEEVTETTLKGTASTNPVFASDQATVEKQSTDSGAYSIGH
# [16] = Metabolic stability in rat liver microsomes; assay type: ADME, Microsome; settings: read-out: Stability
# [17] = Oral bioavailability in rat; assay type: ADME, organism-based; settings: in vivo
# P2X purinoceptor 2 = P2X purinoceptor 2 (Homo sapiens, UniProt Q9UBL9); assay: Antagonist activity at P2X2 receptor; assay type: functional
# Chain of P2X purinoceptor 2 (Q9UBL9 whole entry): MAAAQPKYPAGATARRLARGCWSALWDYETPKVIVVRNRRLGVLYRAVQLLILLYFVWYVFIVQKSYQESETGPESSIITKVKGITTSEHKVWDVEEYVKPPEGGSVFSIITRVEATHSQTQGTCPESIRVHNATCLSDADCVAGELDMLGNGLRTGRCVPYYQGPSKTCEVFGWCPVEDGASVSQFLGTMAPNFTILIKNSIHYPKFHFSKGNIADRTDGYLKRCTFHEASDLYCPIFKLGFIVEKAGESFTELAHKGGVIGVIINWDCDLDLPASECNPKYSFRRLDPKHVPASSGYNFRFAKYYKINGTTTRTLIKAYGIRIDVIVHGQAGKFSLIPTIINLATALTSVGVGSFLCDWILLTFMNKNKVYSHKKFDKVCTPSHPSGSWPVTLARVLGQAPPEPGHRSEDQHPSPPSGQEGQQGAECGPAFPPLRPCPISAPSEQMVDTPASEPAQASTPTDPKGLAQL
# P2X purinoceptor 5 = P2X purinoceptor 5 (Homo sapiens, UniProt Q93086); assay: Antagonist activity at P2X5 receptor; assay type: functional
# [18] = target: Tumor necrosis factor (Homo sapiens) (UniProt P01375); assay: Displacement of [125I]TNF-a from TNFalpha in human U937 cells at 10 uM after 120 mins by scintillation counting; assay type: cell-based; settings: U-937
# Chain of Tumor necrosis factor (Homo sapiens) (P01375 whole entry): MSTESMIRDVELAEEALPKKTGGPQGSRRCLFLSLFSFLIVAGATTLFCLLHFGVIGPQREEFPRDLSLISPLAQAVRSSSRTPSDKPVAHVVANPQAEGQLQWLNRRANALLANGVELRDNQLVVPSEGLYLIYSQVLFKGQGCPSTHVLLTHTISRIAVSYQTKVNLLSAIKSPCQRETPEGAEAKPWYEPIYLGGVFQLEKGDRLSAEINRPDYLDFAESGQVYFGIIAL
# [19] = target: Endothelin receptor type B (Homo sapiens) (UniProt P24530); assay: Displacement of [125I]endothelin-1 from human recombinant ETB receptor expressed in CHO cells at 10 uM after 120 mins by scintillation counting; assay type: cell-based
# [20] = target: Galanin receptor type 1 (Homo sapiens) (UniProt P47211); assay: Displacement of [125I]galanin from human recombinant GAL1 receptor expressed in HEK293 cells at 10 uM after 60 mins by scintillation counting; assay type: cell-based
# Chain of Galanin receptor type 1 (Homo sapiens) (P47211 whole entry): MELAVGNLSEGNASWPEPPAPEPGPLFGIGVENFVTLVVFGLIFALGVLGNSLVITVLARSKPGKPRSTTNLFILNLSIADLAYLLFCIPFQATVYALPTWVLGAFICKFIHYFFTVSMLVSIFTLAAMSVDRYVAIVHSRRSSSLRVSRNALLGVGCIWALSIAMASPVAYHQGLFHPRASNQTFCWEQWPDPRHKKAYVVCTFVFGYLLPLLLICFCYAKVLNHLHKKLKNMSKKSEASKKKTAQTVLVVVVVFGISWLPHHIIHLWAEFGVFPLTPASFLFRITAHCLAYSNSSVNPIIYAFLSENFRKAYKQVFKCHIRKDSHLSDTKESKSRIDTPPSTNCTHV
# [21] = target: Melanocortin receptor 4 (Homo sapiens) (UniProt P32245); assay: Displacement of [125I]NDP-a-MSH from human recombinant MC4 receptor expressed in CHO cells at 10 uM after 120 mins by scintillation counting; assay type: cell-based
# Chain of Melanocortin receptor 4 (Homo sapiens) (P32245 whole entry): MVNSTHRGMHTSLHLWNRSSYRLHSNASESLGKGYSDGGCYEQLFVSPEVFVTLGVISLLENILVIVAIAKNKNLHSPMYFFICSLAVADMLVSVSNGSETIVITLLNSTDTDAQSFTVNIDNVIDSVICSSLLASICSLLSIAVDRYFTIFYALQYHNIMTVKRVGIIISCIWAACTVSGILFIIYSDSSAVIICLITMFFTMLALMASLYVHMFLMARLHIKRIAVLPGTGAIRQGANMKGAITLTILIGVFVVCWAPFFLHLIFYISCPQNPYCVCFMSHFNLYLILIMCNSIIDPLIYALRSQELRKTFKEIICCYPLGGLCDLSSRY
# [22] = target: Substance-P receptor (Homo sapiens) (UniProt P25103); assay: Displacement of [125I]BH-SP from NK1 receptor in human U-373MG cells at 10 uM after 60 mins by scintillation counting; assay type: cell-based; settings: U-373MG ATCC
# Chain of Substance-P receptor (Homo sapiens) (P25103 whole entry): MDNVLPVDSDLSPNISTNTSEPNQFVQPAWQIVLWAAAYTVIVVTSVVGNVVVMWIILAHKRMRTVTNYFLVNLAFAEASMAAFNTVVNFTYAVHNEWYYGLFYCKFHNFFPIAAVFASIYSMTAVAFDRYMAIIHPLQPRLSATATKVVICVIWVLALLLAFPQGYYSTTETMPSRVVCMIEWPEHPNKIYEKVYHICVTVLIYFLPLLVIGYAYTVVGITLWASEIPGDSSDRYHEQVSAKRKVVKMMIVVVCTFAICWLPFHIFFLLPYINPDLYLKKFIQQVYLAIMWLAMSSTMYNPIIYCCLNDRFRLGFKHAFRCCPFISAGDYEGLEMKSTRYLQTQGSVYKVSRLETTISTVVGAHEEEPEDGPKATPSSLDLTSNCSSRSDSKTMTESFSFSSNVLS
# [23] = target: Neuropeptide Y receptor type 2 (Homo sapiens) (UniProt P49146); assay: Displacement of [125I]peptideYY from neuropeptide Y2 receptor in human KAN-TS cells at 10 uM after 60 mins by scintillation counting; assay type: cell-based
# CHO = assay: Displacement of [3H]DADLE from human recombinant delta2 opioid receptor expressed in CHO cells at 10 uM after 120 mins by scintillation counting; assay type: cell-based
# [24] = target: Mu-type opioid receptor (Homo sapiens) (UniProt P35372); assay: Displacement of [3H]DAMGO from human recombinant mu opioid receptor expressed in HEK293 cells at 10 uM after 120 mins by scintillation counting; assay type: cell-based
# [25] = target: Adenosine receptor A2a (Homo sapiens) (UniProt P29274); assay: Displacement of [3H]CGS 21680 from human adenosine A2A receptor expressed in HEK293 cells at 10 uM after 120 mins by scintillation counting
# Chain of Adenosine receptor A2a (Homo sapiens) (P29274 whole entry, looked up): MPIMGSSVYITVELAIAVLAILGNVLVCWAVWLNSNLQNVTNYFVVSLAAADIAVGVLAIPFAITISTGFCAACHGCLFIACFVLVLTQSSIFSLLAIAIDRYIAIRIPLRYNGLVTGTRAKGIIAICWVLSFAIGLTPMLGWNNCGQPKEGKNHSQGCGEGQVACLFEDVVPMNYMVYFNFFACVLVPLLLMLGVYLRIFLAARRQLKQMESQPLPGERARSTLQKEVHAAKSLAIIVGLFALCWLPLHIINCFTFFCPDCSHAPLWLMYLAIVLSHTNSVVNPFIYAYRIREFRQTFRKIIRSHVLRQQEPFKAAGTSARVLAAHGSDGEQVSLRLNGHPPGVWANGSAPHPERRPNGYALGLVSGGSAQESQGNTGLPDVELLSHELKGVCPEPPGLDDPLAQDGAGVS
smiles,measurement,setting,value
CC(=O)N1CCN(C[C@@H](C)NC(=O)c2cc3c(-c4ccccc4)nn(C)c3s2)CC1,Activity,[1],> 50%
same,Activity,[2],> 50%
same,Activity,[3],> 50%
same,Activity,[4],> 50%
same,Activity,Rattus norvegicus [5],> 50%
same,Activity,[6],> 50%
same,Activity,[7],> 50%
same,Activity,[8],> 50%
same,Activity,Rattus norvegicus [9],> 50%
same,Activity,[10],> 50%
same,Activity,[11],> 50%
same,Activity,[12],> 50%
same,Activity,[13],> 50%
same,Activity,[14],> 50%
same,Activity,[15],> 50%
same,IC50,P2X purinoceptor 3,31.6 nM
same,microsomal CLint,[16],43.7 µL/min/mg
same,bioavailability,[17],89%
same,IC50,P2X purinoceptor 2,> 10 µM
same,IC50,P2X purinoceptor 5,> 10 µM
same,Activity,[18],> 50%
same,Activity,[19],> 50%
same,Activity,[20],> 50%
same,Activity,[21],> 50%
same,Activity,[22],> 50%
same,Activity,[23],> 50%
same,Activity,CHO,> 50%
same,Activity,[24],> 50%
same,Activity,[25],> 50%

# Reference: ChEMBL document CHEMBL1159093, “Discovery and optimization of RO-85, a novel drug-like, potent, and selective P2X3 receptor antagonist” (Bioorg Med Chem Lett, 2010)
